Consider 27 compounds from PubChem BioAssay AID256 (DTP/NCI, 2004).

This test deals with CD2F1 mice, L1210 leukemia ip, survival T/C. In words: NCI In Vivo Anticancer Drug Screen. Data for tumor model L1210 Leukemia (intraperitoneal) in CD2F1 (CDF1) mice. Particulars: higher = longer survival. The method in brief:
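Activity against a transplanted murine tumor was judged by comparing the compound group with a vehicle group. The outcome in the treated animals was divided by that in the controls.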

[1] abbreviates: endpoint: mean survival time, dose: 100.0 mg/kg/injection, schedule: Q01DX001 (ip), vehicle: saline.
Where [2] appears, read: endpoint: mean survival time, dose: 200.0 mg/kg/injection, schedule: Q01DX001 (ip), vehicle: saline.
[3] abbreviates: endpoint: mean survival time, dose: 400.0 mg/kg/injection, schedule: Q01DX001 (ip), vehicle: saline.
Where [4] appears, read: endpoint: mean survival time, dose: 50.0 mg/kg/injection, schedule: Q01DX009 (ip), vehicle: saline with Tween-80.
The mark [5] stands for this setting: endpoint: mean survival time, dose: 100.0 mg/kg/injection, schedule: Q01DX009 (ip), vehicle: saline with Tween-80.
The mark [6] stands for this setting: endpoint: mean survival time, dose: 200.0 mg/kg/injection, schedule: Q01DX009 (ip), vehicle: saline with Tween-80.
The mark [7] stands for this setting: endpoint: mean survival time, dose: 400.0 mg/kg/injection, schedule: Q01DX009 (ip), vehicle: saline with Tween-80.
The mark [8] stands for this setting: endpoint: mean survival time, dose: 100.0 mg/kg/injection, schedule: Q04DX003 (ip), vehicle: saline with Tween-80.
The mark [9] stands for this setting: endpoint: mean survival time, dose: 200.0 mg/kg/injection, schedule: Q04DX003 (ip), vehicle: saline with Tween-80.
Setting [10] is: endpoint: mean survival time, dose: 400.0 mg/kg/injection, schedule: Q04DX003 (ip), vehicle: saline with Tween-80.
Where [11] appears, read: endpoint: mean survival time, dose: 50.0 mg/kg/injection, schedule: Q04DX002 (ip), vehicle: saline with Tween-80.
[12] abbreviates: endpoint: mean survival time, dose: 25.0 mg/kg/injection, schedule: Q04DX003 (ip), vehicle: saline with Tween-80.
The mark [13] stands for this setting: endpoint: mean survival time, dose: 50.0 mg/kg/injection, schedule: Q04DX003 (ip), vehicle: saline with Tween-80.

Values joined by “and” are separate entries in the source; they are usually repeats but may differ in a detail not shown here. Equal entries are not always repeated. Inconclusive results and toxic doses are left out.

Consider `CC1CC1C(=O)O` (centres undefined), for which the T/C was 102 % of control (endpoint: mean survival time, dose: 100.0 mg/kg/injection, schedule: Q04DX003 (ip), vehicle: saline) and 102 % of control (endpoint: mean survival time, dose: 200.0 mg/kg/injection, schedule: Q04DX003 (ip), vehicle: saline).
With `COc1cc(N2C(N)=NC(N)=NC2(C)C)cc(OC)c1OC`, the T/C was 97 % of control (endpoint: mean survival time, dose: 6.25 mg/kg/injection, schedule: Q04DX003 (ip), vehicle: saline); 102 % of control (endpoint: mean survival time, dose: 12.5 mg/kg/injection, schedule: Q04DX003 (ip), vehicle: saline); 102 % of control (endpoint: mean survival time, dose: 25.0 mg/kg/injection, schedule: Q04DX003 (ip), vehicle: saline).
Take `N#Cc1c2ccccc2nn1C1OC(CO)C(O)C1O` (centres undefined): the T/C was 109 % of control (endpoint: mean survival time, dose: 100.0 mg/kg/injection, schedule: Q01DX005 (ip), vehicle: saline) and 98 % of control (endpoint: mean survival time, dose: 200.0 mg/kg/injection, schedule: Q01DX005 (ip), vehicle: saline).
On to `CC[C@@H](O)C[C@H]1CCC[C@@]2(C[C@@H]3OC(=O)/C=C/[C@@](C)(O)[C@@H](O)[C@H](C)[C@@H](O)[C@H](OC4CCC(N(C)C)C(C)O4)[C@@H](O)[C@](C)(O)CCCCC/C=C/[C@@H]4CC(C)(C)O[C@@]4(O)C[C@H](O2)[C@H]3C)O1` (some centres undefined), for which, where the note is “endpoint: mean survival time, dose: 0.25 mg/kg/injection, schedule: Q01DX009 (ip), vehicle: saline”, the T/C was 109 % of control.
With `Cc1ccc(OCC2CO2)cc1` (centres undefined), the T/C runs as follows: under setting [1], 104 % of control; under setting [2], 95 % of control; under setting [3], 102 % of control.
On to `CNc1cccnc1/C=N/NC(N)=S`, for which the T/C (endpoint: mean survival time, dose: 12.5 mg/kg/injection, schedule: Q01DX009 (ip), vehicle: saline with Tween-80) is 104 % of control; the T/C under setting [4] is 154 % of control; the T/C under setting [5] is 162 % of control; the T/C under setting [6] was 181 % of control; the T/C under setting [7] was 90 % of control.
Turning to `NC(N)=N/N=C/c1c(O)ccc2ccccc12`, the T/C is 102 % of control (endpoint: mean survival time, dose: 31.25 mg/kg/injection, schedule: Q01DX010 (oral), vehicle: saline); 108 % of control (endpoint: mean survival time, dose: 62.5 mg/kg/injection, schedule: Q01DX010 (oral), vehicle: saline); 101 % of control (endpoint: mean survival time, dose: 125.0 mg/kg/injection, schedule: Q01DX010 (oral), vehicle: saline).
Consider `C/C=C/C=C\C=C/C(O)CC(OP(=O)(O)O)C(C)(O)/C=C/C1CC=CC(=O)O1` (centres undefined), for which the T/C (endpoint: median survival time, dose: 0.38 mg/kg/injection, schedule: Q01DX009 (ip), vehicle: water) was 116 % of control; the T/C (endpoint: median survival time, dose: 1.5 mg/kg/injection, schedule: Q01DX009 (ip), vehicle: water) was 180 % of control; the T/C (endpoint: median survival time, dose: 3.0 mg/kg/injection, schedule: Q01DX009 (ip), vehicle: water) was 153 % of control and 168 % of control; the T/C (endpoint: median survival time, dose: 6.0 mg/kg/injection, schedule: Q01DX009 (ip), vehicle: water) is 120 % of control and 226 % of control.
`Cc1ccc(P(=S)(c2ccccc2)c2ccccc2)c2ccccc12`: the T/C is 104 % of control under setting [1], 101 % of control under setting [2] and 95 % of control under setting [3].
With `O=C1C2C(C(=O)N1c1ccc(F)c([N+](=O)[O-])c1)C1(Cl)C(Cl)=C(Cl)C2(Cl)C1(Cl)Cl` (centres undefined), the T/C runs as follows: under setting [4], 108 % of control; under setting [5], 116 % of control; under setting [6], 111 % of control.
In the case of `NC1CCCN(Cc2ccccc2)C1` (centres undefined), the T/C reads like this: (endpoint: mean survival time, dose: 75.0 mg/kg/injection, schedule: Q01DX001 (ip), vehicle: saline) 95 % of control; (endpoint: mean survival time, dose: 150.0 mg/kg/injection, schedule: Q01DX001 (ip), vehicle: saline) 97 % of control; (endpoint: mean survival time, dose: 300.0 mg/kg/injection, schedule: Q01DX001 (ip), vehicle: saline) 97 % of control.
As to `CC(C)[Si](F)(c1ccc(Br)cc1)C(C)C`, the T/C under setting [8] is 108 % of control, the T/C under setting [9] is 106 % of control and the T/C under setting [10] was 93 % of control.
Take `Cc1cccc(Cl)c1NC(=O)Nc1ccc(C(=O)O)c(O)c1`: the T/C reads like this: under setting [5], 97 % of control; under setting [6], 103 % of control; under setting [7], 114 % of control.
As to `COc1ccc([C@@H]2c3cc4c(cc3C[C@H]3COC(=O)[C@@H]32)OCO4)cc1OC`, the T/C reads like this: (endpoint: mean survival time, dose: 11.0 mg/kg/injection, schedule: Q01DX009 (ip), vehicle: saline with Tween-80) 110 % of control; (endpoint: mean survival time, dose: 22.0 mg/kg/injection, schedule: Q01DX009 (ip), vehicle: saline with Tween-80) 110 % of control; (endpoint: mean survival time, dose: 33.0 mg/kg/injection, schedule: Q01DX009 (ip), vehicle: saline with Tween-80) 109 % of control; (endpoint: mean survival time, dose: 67.0 mg/kg/injection, schedule: Q01DX009 (ip), vehicle: saline with Tween-80) 107 % of control.
Turning to `CC(C)(C)NO`, the T/C is, setting by setting: (endpoint: mean survival time, dose: 100.0 mg/kg/injection, schedule: Q01DX001 (ip), vehicle: Klucel (hydroxypropylcellulose) (HPC)) 100 % of control; (endpoint: mean survival time, dose: 200.0 mg/kg/injection, schedule: Q01DX001 (ip), vehicle: Klucel (hydroxypropylcellulose) (HPC)) 96 % of control; (endpoint: mean survival time, dose: 400.0 mg/kg/injection, schedule: Q01DX001 (ip), vehicle: Klucel (hydroxypropylcellulose) (HPC)) 100 % of control.
For `CC(C)(C)c1cc(C(C)(C)C)nc([N+](C)(C)C)c1`, the T/C runs as follows: (endpoint: mean survival time, dose: 12.5 mg/kg/injection, schedule: Q04DX002 (ip), vehicle: saline with Tween-80) 108 % of control; (endpoint: mean survival time, dose: 25.0 mg/kg/injection, schedule: Q04DX002 (ip), vehicle: saline with Tween-80) 101 % of control; under setting [11], 101 % of control.
On to `C[N+](C)(C)CCS(=O)(=O)c1ccc(Cl)cc1`, for which the T/C (endpoint: mean survival time, dose: 25.0 mg/kg/injection, schedule: Q04DX002 (ip), vehicle: saline) is 90 % of control; the T/C (endpoint: mean survival time, dose: 50.0 mg/kg/injection, schedule: Q04DX002 (ip), vehicle: saline) was 94 % of control; the T/C (endpoint: mean survival time, dose: 100.0 mg/kg/injection, schedule: Q04DX002 (ip), vehicle: saline) was 86 % of control.
Regarding `CN1CCN(C(=O)Nc2ccc(N=Nc3ccccc3)cc2)CC1`, the T/C under setting [12] was 95 % of control, the T/C under setting [13] is 95 % of control and the T/C under setting [8] is 88 % of control.
For `COc1ccc(OC)c(/C=N/N=C/c2cc(OC)ccc2OC)c1`, the T/C was 106 % of control under setting [8], 94 % of control under setting [9] and 94 % of control under setting [10].
For the compound `COc1ccc2cc1Oc1ccc(cc1)C[C@@H]1c3cc(c(OC)cc3CCN1C)Oc1c(OC)c(OC)cc3c1[C@H](C2)N(C)CC3`, the T/C is 94 % of control under setting [11]; 94 % of control (endpoint: mean survival time, dose: 100.0 mg/kg/injection, schedule: Q04DX002 (ip), vehicle: saline with Tween-80); 94 % of control (endpoint: mean survival time, dose: 200.0 mg/kg/injection, schedule: Q04DX002 (ip), vehicle: saline with Tween-80); 90 % of control (endpoint: mean survival time, dose: 400.0 mg/kg/injection, schedule: Q04DX002 (ip), vehicle: saline with Tween-80).
Consider `Cc1ccc(S(=O)(=O)OC2CC3CC2C2C4C=CC(C4)C32)cc1` (centres undefined), for which the T/C under setting [4] is 101 % of control, the T/C under setting [5] is 93 % of control and the T/C under setting [6] is 101 % of control.
On to `CCCCCCCCCCCCCC(CCCCCCCC)CCCCCCCC`, for which the T/C (endpoint: mean survival time, dose: 100.0 mg/kg/injection, schedule: Q01DX001 (ip), vehicle: saline sonified) was 111 % of control; the T/C (endpoint: mean survival time, dose: 200.0 mg/kg/injection, schedule: Q01DX001 (ip), vehicle: saline sonified) was 104 % of control; the T/C (endpoint: mean survival time, dose: 400.0 mg/kg/injection, schedule: Q01DX001 (ip), vehicle: saline sonified) was 101 % of control.
For the compound `N#CCCN1c2ccccc2Sc2ccccc21`, the T/C (endpoint: mean survival time, dose: 75.0 mg/kg/injection, schedule: Q04DX003 (ip), vehicle: saline) is 102 % of control and the T/C (endpoint: mean survival time, dose: 150.0 mg/kg/injection, schedule: Q04DX003 (ip), vehicle: saline) was 112 % of control.
As for `CC(=O)c1cc(F)ccc1O`, the T/C is 92 % of control under setting [5], 111 % of control under setting [6] and 88 % of control under setting [7].
Turning to `CC(=O)Nc1sc([N+](=O)[O-])cc1[N+](=O)[O-]`, the T/C under setting [12] was 101 % of control; the T/C under setting [13] is 108 % of control; the T/C under setting [8] is 91 % of control and 101 % of control.
On to `CSc1ccc(NC(=O)C(O)C(O)C(O)C(O)CO)cc1` (centres undefined), for which the T/C reads like this: (endpoint: mean survival time, dose: 100.0 mg/kg/injection, schedule: Q01DX009 (ip), vehicle: saline) 103 % of control; (endpoint: mean survival time, dose: 200.0 mg/kg/injection, schedule: Q01DX009 (ip), vehicle: saline) 113 % of control; (endpoint: mean survival time, dose: 400.0 mg/kg/injection, schedule: Q01DX009 (ip), vehicle: saline) 102 % of control.
Turning to `c1c2c(cc3c1OCO3)CNCC2`, the T/C under setting [1] is 102 % of control.
